One experiment relates to KURAMOCHI
Nature of the experiment: drug sensitivity score (DSS2) on cancer cell count; higher = more sensitive; extreme values may be limits of the assay. The conditions noted are these: 72 h. The method, boiled down: (§1)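 Ovarian cancer cells grown alone or 1:1 with lung or skin fibroblasts in direct co-culture were treated for 72 h on 384-well plates carrying 528 approved and investigational compounds at 5 concentrations. Fixed cells were stained for CK8/18 with Hoechst and imaged to count cancer cells. A drug sensitivity score was then derived in Breeze from logistic curve fits.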

For a further experiment, the system named is OVCAR8. Described as above. The conditions noted are these: 72 h. The method, boiled down:
as §1

The mark [1] stands for this setting: co-cultured fibroblast: BJHTERT.
Where [2] appears, read: co-cultured fibroblast: none (monoculture).

Consider `CN1CCN(C(=O)c2ccc3cc(CCNc4ncnc5ccc(C#N)cc45)ccc3c2)CC1` [Senexin B], for which the drug sensitivity score with KURAMOCHI (setting [1]) was determined as 1.1 DSS; with KURAMOCHI (co-cultured fibroblast: WI38), 1.6 DSS; with KURAMOCHI (setting [2]) it was 1 DSS; in the experiment with OVCAR8 (setting [1]), 1.1 DSS; in the experiment on OVCAR8 (co-cultured fibroblast: WI38), 0 DSS; with OVCAR8 (setting [2]) it was 0.1 DSS.

On to `CC[C@@H]1C(=O)N(C)c2cnc(Nc3ccc(C(=O)NC4CCN(C)CC4)cc3OC)nc2N1C1CCCC1` [BI 2536], for which the drug sensitivity score came to 21.7 DSS with KURAMOCHI (setting [1]); 25.7 DSS in the experiment on KURAMOCHI (co-cultured fibroblast: WI38); 21.1 DSS with KURAMOCHI (setting [2]); 29.5 DSS in the experiment on OVCAR8 (setting [1]); 25.6 DSS in the experiment with OVCAR8 (co-cultured fibroblast: WI38); 29.1 DSS in the experiment on OVCAR8 (setting [2]).

Regarding `CCCC(CCC)C(=O)O` [Valproic acid], the drug sensitivity score in the experiment with KURAMOCHI (setting [1]), with KURAMOCHI (co-cultured fibroblast: WI38), in the experiment on KURAMOCHI (setting [2]), in the experiment with OVCAR8 (setting [1]), in the experiment with OVCAR8 (co-cultured fibroblast: WI38) and with OVCAR8 (setting [2]) was 0 DSS each time.

Take `CCCN(CCC)C(=O)C1=Cc2ccc(-c3ccc(C(=O)N4CCCC4)cc3)cc2N=C(N)C1` [Motolimod]: the drug sensitivity score was 1.3 DSS with KURAMOCHI (setting [1]); 0 DSS in the experiment on KURAMOCHI (co-cultured fibroblast: WI38); 1 DSS in the experiment with KURAMOCHI (setting [2]); 0 DSS in the experiment with OVCAR8 (setting [1]); 0 DSS in the experiment on OVCAR8 (co-cultured fibroblast: WI38); 2.4 DSS in the experiment on OVCAR8 (setting [2]).

Turning to `Nc1nc2[nH]cnc2c(=S)[nH]1` [Thioguanine], the drug sensitivity score in the experiment with KURAMOCHI (setting [1]) turned out to be 5.3 DSS; in the experiment with KURAMOCHI (co-cultured fibroblast: WI38) it was 5.7 DSS; with KURAMOCHI (setting [2]), 7.7 DSS; with OVCAR8 (setting [1]) it was 4.8 DSS; in the experiment with OVCAR8 (co-cultured fibroblast: WI38), 7.3 DSS; in the experiment on OVCAR8 (setting [2]) it was 13.6 DSS.

`O=c1[nH]c(=O)n([C@H]2C[C@H](O)[C@@H](CO)O2)cc1F` [Floxuridine]: the drug sensitivity score in the experiment on KURAMOCHI (setting [1]) was 19.9 DSS; with KURAMOCHI (co-cultured fibroblast: WI38), 19 DSS; with KURAMOCHI (setting [2]), 20.7 DSS; with OVCAR8 (setting [1]), 18.7 DSS; in the experiment with OVCAR8 (co-cultured fibroblast: WI38) it was 17.9 DSS; with OVCAR8 (setting [2]) it was 26.7 DSS.

Turning to `COc1cc2nccc(Oc3ccc(NC(=O)C4(C(=O)Nc5ccc(F)cc5)CC4)cc3)c2cc1OC` [Cabozantinib], the drug sensitivity score in the experiment on KURAMOCHI (setting [1]) came to 0.4 DSS; in the experiment on KURAMOCHI (co-cultured fibroblast: WI38), 0 DSS; in the experiment on KURAMOCHI (setting [2]), 0 DSS; in the experiment with OVCAR8 (setting [1]), 0 DSS; in the experiment on OVCAR8 (co-cultured fibroblast: WI38), 0.2 DSS; in the experiment with OVCAR8 (setting [2]) it was 4.4 DSS.

On to `Nc1ncn([C@@H]2O[C@H](CO)[C@@H](O)[C@H]2O)c(=O)n1` [Azacitidine], for which the drug sensitivity score is 2.8 DSS with KURAMOCHI (setting [1]); 2.6 DSS in the experiment with KURAMOCHI (co-cultured fibroblast: WI38); 9.3 DSS in the experiment on KURAMOCHI (setting [2]); 3.9 DSS with OVCAR8 (setting [1]); 1.5 DSS in the experiment on OVCAR8 (co-cultured fibroblast: WI38); 8.9 DSS with OVCAR8 (setting [2]).

On to `CNC(=O)c1ccc(-c2cnc3ncc(Cc4ccc5ncccc5c4)n3n2)cc1F` [Capmatinib], for which the drug sensitivity score in the experiment on KURAMOCHI (setting [1]), with KURAMOCHI (co-cultured fibroblast: WI38), in the experiment with KURAMOCHI (setting [2]), in the experiment with OVCAR8 (setting [1]), in the experiment on OVCAR8 (co-cultured fibroblast: WI38) and with OVCAR8 (setting [2]) was 0 DSS in each case.

Consider `COc1cc(N2CCC(N3CCN(C)CC3)CC2)ccc1Nc1ncnc(Nc2ccccc2S(=O)(=O)C(C)C)n1` [ASP3026], for which the drug sensitivity score in the experiment on KURAMOCHI (setting [1]) was 7.7 DSS; in the experiment on KURAMOCHI (co-cultured fibroblast: WI38) it was 2 DSS; in the experiment on KURAMOCHI (setting [2]) it was 5.7 DSS; in the experiment with OVCAR8 (setting [1]), 8.6 DSS; in the experiment on OVCAR8 (co-cultured fibroblast: WI38) it was 3.1 DSS; in the experiment on OVCAR8 (setting [2]), 4.7 DSS.

Take `C=CC[C@@H]1/C=C(\C)C[C@H](C)C[C@H](OC)[C@H]2O[C@@](O)(C(=O)C(=O)N3CCCC[C@H]3C(=O)O[C@H](/C(C)=C/[C@@H]3CC[C@@H](O)[C@H](OC)C3)[C@H](C)[C@@H](O)CC1=O)[C@H](C)C[C@@H]2OC` [Tacrolimus]: the drug sensitivity score was found to be 1 DSS in the experiment on KURAMOCHI (setting [1]); 1 DSS in the experiment on KURAMOCHI (co-cultured fibroblast: WI38); 18.5 DSS in the experiment on KURAMOCHI (setting [2]); 0.8 DSS with OVCAR8 (setting [1]); 0 DSS in the experiment with OVCAR8 (co-cultured fibroblast: WI38); 3.1 DSS in the experiment with OVCAR8 (setting [2]).

For `CC(C)C[C@H](NC(=O)CNC(=O)c1cc(Cl)ccc1Cl)B(O)O` [Ixazomib], the drug sensitivity score was 1 DSS with KURAMOCHI (setting [1]); 11.6 DSS in the experiment with KURAMOCHI (co-cultured fibroblast: WI38); 7.6 DSS in the experiment with KURAMOCHI (setting [2]); 1.8 DSS in the experiment with OVCAR8 (setting [1]); 8.7 DSS with OVCAR8 (co-cultured fibroblast: WI38); 11.3 DSS in the experiment with OVCAR8 (setting [2]).

With `Cc1nc(=O)c2cc(CN(C)c3ccc(C(=O)N[C@@H](CCC(=O)O)C(=O)O)s3)ccc2[nH]1` [Raltitrexed], the drug sensitivity score turned out to be 11.2 DSS with KURAMOCHI (setting [1]); 16.8 DSS with KURAMOCHI (co-cultured fibroblast: WI38); 10.4 DSS in the experiment on KURAMOCHI (setting [2]); 16.4 DSS with OVCAR8 (setting [1]); 18.3 DSS with OVCAR8 (co-cultured fibroblast: WI38); 15.9 DSS in the experiment on OVCAR8 (setting [2]).

In the case of `COc1cc2c(Nc3ccc(Cl)c(Cl)c3F)ncnc2cc1OC[C@@H]1C[C@@H]2CN(C)C[C@@H]2C1` [Tesevatinib], the drug sensitivity score was 5 DSS in the experiment on KURAMOCHI (setting [1]); 1.4 DSS in the experiment with KURAMOCHI (co-cultured fibroblast: WI38); 11.7 DSS in the experiment on KURAMOCHI (setting [2]); 3.3 DSS with OVCAR8 (setting [1]); 0.4 DSS with OVCAR8 (co-cultured fibroblast: WI38); 3.4 DSS in the experiment on OVCAR8 (setting [2]).

In the case of `Cc1ccc(NC(=O)c2ccc(CN3CC[C@H](N(C)C)C3)c(C(F)(F)F)c2)cc1Nc1nccc(-c2cncnc2)n1` [Bafetinib], the drug sensitivity score with KURAMOCHI (setting [1]) was determined as 0.1 DSS; in the experiment on KURAMOCHI (co-cultured fibroblast: WI38), 0 DSS; in the experiment with KURAMOCHI (setting [2]), 0 DSS; with OVCAR8 (setting [1]) it was 0 DSS; in the experiment with OVCAR8 (co-cultured fibroblast: WI38) it was 0 DSS; in the experiment with OVCAR8 (setting [2]) it was 0 DSS.

For `CC[C@@H]1[C@H](F)C(=O)N[C@@H]1COc1nccc2cc(C(N)=O)c(OC)cc12`, the drug sensitivity score is 3.7 DSS in the experiment on KURAMOCHI (setting [1]); 1.8 DSS with KURAMOCHI (co-cultured fibroblast: WI38); 1.9 DSS in the experiment with KURAMOCHI (setting [2]); 2.4 DSS in the experiment on OVCAR8 (setting [1]); 10.1 DSS with OVCAR8 (co-cultured fibroblast: WI38); 4 DSS with OVCAR8 (setting [2]).

Regarding `CO[C@H]1C[C@@H]2CC[C@@H](C)[C@@](O)(O2)C(=O)C(=O)N2CCCC[C@H]2C(=O)O[C@H]([C@H](C)C[C@@H]2CC[C@@H](OP(C)(C)=O)[C@H](OC)C2)CC(=O)[C@H](C)/C=C(\C)[C@@H](O)[C@@H](OC)C(=O)[C@H](C)C[C@H](C)/C=C/C=C/C=C/1C` [Ridaforolimus], the drug sensitivity score stood at 11.6 DSS in the experiment on KURAMOCHI (setting [1]); 13.4 DSS with KURAMOCHI (co-cultured fibroblast: WI38); 8.1 DSS with KURAMOCHI (setting [2]); 7.1 DSS with OVCAR8 (setting [1]); 0 DSS in the experiment on OVCAR8 (co-cultured fibroblast: WI38); 9.8 DSS with OVCAR8 (setting [2]).

In the case of `COCCNCc1ccc(-c2cc3nccc(Oc4ccc(NC(=S)NC(=O)Cc5ccc(F)cc5)cc4F)c3s2)nc1` [Glesatinib], the drug sensitivity score in the experiment on KURAMOCHI (setting [1]) was found to be 2.7 DSS; with KURAMOCHI (co-cultured fibroblast: WI38), 1.6 DSS; in the experiment with KURAMOCHI (setting [2]), 2.3 DSS; in the experiment with OVCAR8 (setting [1]) it was 0 DSS; in the experiment with OVCAR8 (co-cultured fibroblast: WI38), 3.5 DSS; in the experiment on OVCAR8 (setting [2]), 0 DSS.

(Values after the supplement of paper PMC12420376.)
